Laboratory results: patent publication US8168646B2, “3,4-dihydroquinazoline derivatives” (Dongwoo Syntech Co., Ltd., priority 2007, dated 2012)

Legend:
[1] = test system: human malignant melanoma (SK-MEL-2); assay: Growth inhibition, SRB assay, SK-MEL-2; type: cell-based; conditions: 72 hours, three independent experiments, read-out: Growth inhibition of cancer cell: GI50, SK-MEL-2
Protocol: (§1) T-type calcium channel blocking effects of the compounds of the present invention were tested according to an electrophysiological whole-cell patch-clamp method, which uses mammalian HEK293 cell line selectively expressing α1G among T-type calcium channel encoding genes, wherein the α1G is mainly expressed at nerve cells (derived from […]), as described in Korean Patent No. 0610731 and Monteil, A., et al., J. Biol. Chem. 2000, 275, 6090-6100. Also, cytotoxicities of the compounds according to the present invention were tested according to a 3-(4,5-dimethylthiazol-2-yl)-2,5-diphenyltetrazolium bromide (MTT) assay. Further, growth inhibition effects against cancer cell lines of the compounds according to the present invention were tested according to a sulforhodamine B (SRB) assay, as disclosed in Skehan, P. et al., J. Natl Cancer Inst. 1990, 82, 1107-1112.
(§2) Experiment 3: Analysis for Growth Inhibition Against Cancer Cell Lines Using SRB Assay
(§3) The compounds according to the present invention were evaluated for their growth inhibition against five cancer cell lines, including human lung carcinoma (A-549), human prostate cancer (DU 145), human colon cancer (HT-29), human malignant melanoma (SK-MEL-2) and human ovarian cancer (SK-OV-3) using sulforhodamine B (SRB) assay. All cell lines were grown in RPMI 1640 (Gibco BRL) supplemented with 10% (v/v) heat-inactivated fetal bovine serum (FBS) and maintained at 37° C. in a humidified atmosphere with 5% CO2. The cells were seeded into 96-well plate. Various concentrations of compounds were added to each well in triplicate and then incubated at 37° C. with 5% CO2 for 72 hours such that cells are in the exponential phase of growth at the time of drug addition. After incubation, 100 μL of formalin solution was gently added to the wells. Microplates were left for 30 min at room temperature and washed five times with tap water. One hundred microliters of 0.4% SRB solution was added to each well and left at room temperature for 30 min. SRB was removed and the plates were washed five times with 1% acetic acid before air-drying. Bound SRB was solubilized with 100 μL of 10 mM unbuffered Tris-base solution (Sigma) and plates were left on a plate shaker for at least 10 min. The optical density was measured using a microplate reader (Versamax, Molecular Devices) with a 520 nm wavelength and the growth inhibition concentration was expressed as GI50.

[2] = test system: human ovarian cancer (SK-OV-3); assay: Growth inhibition, SRB assay, SK-OV-3; type: cell-based; conditions: 72 hours, three independent experiments, read-out: Growth inhibition of cancer cell: GI50, SK-OV-3
Protocol: as §1, §2, §3

[3] = test system: human prostate cancer (DU 145); assay: Growth inhibition, SRB assay, DU 145; type: cell-based; conditions: 72 hours, three independent experiments, read-out: Growth inhibition of cancer cell: GI50, DU 145
Protocol: as §1, §2, §3

[4] = test system: human colon cancer (HT-29); assay: Growth inhibition, SRB assay, HT-29; type: cell-based; conditions: for GI50: Homo sapiens, HT-29, SRB assay, 72 hours, three independent experiments, read-out: Growth inhibition of cancer cell: GI50, HT-29
Protocol: as §1, §2, §3

[5] = test system: human lung carcinoma (A-549); assay: Growth inhibition, SRB assay, A-549; type: cell-based; conditions: A549, 72 hours, three independent experiments, read-out: Growth inhibition of cancer cell: GI50, A-549
Protocol: as §1, §2, §3

[6] = target: T1, T-type calcium channel (α1G) (Homo sapiens, UniProt O43497); assay: T-type calcium channel blocking, electrophysiological whole-cell patch-clamp in HEK293 cells expressing α1G; type: cell-based; conditions: dose-response curve, three independent experiments, read-out: Channel blocking effect (IC50) T-type (α1G)
T1 construct: expressed in transfected cells
Protocol: as §1
Experiment 1: Methods for Culturing HEK293 cells and measuring T-type Calcium Channel Activity Using an Electrophysiological Method
HEK293 cells were cultured in Dulbecco's modified Eagle's medium (DMEM) supplemented with 10% fetal bovine serum (FBS) and 1% penicillin/streptomycin (v/v) in 36.5° C. humidified incubator (95% air-5% CO2). […] The cells used for T-type calcium channel activity assay were cultured on a cover slip coated with poly-L-lysine (0.5 mg/mL) whenever sub-cultured, and their calcium channel activity was recorded 2 to 7 days after the cultivation. Current of the T-type calcium channel at a single cell level was measured according to an electrophysiological whole-cell patch-clamp method using EPC-9 amplifier (HEKA, Germany). […] Inward current caused by the T-type calcium channel activation which occurred when the cells were converted into a whole-cell recording mode by stabbing a microglass electrode having 3-4 MΩ resistance which was filled with the cell interior solution into a single cell and de-polarized at −30 mV (50 ms duration period) every 10 s with fixing membrane potential to −100 mV was measured according to a T-type calcium channel protocol activated at low current.

five cancer cell lines = assay: Growth inhibition, SRB assay, five cancer cell lines overall; type: cell-based, human
Protocol: as §2
as §3, with “One hundred microliters of 0.4% SRB solution was added to each well and left at room temperature for 30 min. SRB was removed and the plates were washed five times with 1% acetic acid before air-drying. Bound SRB was solubilized with 100 μL of 10 mM unbuffered Tris-base solution (Sigma) and plates were left on a plate shaker for at least 10 min.” left out
The biological activities of doxorubicin and KYS05042 disclosed in Korean Patent No. 0610731 were evaluated as references, and the results are indicated in Table 2.

T1 sequence (O43497 whole entry): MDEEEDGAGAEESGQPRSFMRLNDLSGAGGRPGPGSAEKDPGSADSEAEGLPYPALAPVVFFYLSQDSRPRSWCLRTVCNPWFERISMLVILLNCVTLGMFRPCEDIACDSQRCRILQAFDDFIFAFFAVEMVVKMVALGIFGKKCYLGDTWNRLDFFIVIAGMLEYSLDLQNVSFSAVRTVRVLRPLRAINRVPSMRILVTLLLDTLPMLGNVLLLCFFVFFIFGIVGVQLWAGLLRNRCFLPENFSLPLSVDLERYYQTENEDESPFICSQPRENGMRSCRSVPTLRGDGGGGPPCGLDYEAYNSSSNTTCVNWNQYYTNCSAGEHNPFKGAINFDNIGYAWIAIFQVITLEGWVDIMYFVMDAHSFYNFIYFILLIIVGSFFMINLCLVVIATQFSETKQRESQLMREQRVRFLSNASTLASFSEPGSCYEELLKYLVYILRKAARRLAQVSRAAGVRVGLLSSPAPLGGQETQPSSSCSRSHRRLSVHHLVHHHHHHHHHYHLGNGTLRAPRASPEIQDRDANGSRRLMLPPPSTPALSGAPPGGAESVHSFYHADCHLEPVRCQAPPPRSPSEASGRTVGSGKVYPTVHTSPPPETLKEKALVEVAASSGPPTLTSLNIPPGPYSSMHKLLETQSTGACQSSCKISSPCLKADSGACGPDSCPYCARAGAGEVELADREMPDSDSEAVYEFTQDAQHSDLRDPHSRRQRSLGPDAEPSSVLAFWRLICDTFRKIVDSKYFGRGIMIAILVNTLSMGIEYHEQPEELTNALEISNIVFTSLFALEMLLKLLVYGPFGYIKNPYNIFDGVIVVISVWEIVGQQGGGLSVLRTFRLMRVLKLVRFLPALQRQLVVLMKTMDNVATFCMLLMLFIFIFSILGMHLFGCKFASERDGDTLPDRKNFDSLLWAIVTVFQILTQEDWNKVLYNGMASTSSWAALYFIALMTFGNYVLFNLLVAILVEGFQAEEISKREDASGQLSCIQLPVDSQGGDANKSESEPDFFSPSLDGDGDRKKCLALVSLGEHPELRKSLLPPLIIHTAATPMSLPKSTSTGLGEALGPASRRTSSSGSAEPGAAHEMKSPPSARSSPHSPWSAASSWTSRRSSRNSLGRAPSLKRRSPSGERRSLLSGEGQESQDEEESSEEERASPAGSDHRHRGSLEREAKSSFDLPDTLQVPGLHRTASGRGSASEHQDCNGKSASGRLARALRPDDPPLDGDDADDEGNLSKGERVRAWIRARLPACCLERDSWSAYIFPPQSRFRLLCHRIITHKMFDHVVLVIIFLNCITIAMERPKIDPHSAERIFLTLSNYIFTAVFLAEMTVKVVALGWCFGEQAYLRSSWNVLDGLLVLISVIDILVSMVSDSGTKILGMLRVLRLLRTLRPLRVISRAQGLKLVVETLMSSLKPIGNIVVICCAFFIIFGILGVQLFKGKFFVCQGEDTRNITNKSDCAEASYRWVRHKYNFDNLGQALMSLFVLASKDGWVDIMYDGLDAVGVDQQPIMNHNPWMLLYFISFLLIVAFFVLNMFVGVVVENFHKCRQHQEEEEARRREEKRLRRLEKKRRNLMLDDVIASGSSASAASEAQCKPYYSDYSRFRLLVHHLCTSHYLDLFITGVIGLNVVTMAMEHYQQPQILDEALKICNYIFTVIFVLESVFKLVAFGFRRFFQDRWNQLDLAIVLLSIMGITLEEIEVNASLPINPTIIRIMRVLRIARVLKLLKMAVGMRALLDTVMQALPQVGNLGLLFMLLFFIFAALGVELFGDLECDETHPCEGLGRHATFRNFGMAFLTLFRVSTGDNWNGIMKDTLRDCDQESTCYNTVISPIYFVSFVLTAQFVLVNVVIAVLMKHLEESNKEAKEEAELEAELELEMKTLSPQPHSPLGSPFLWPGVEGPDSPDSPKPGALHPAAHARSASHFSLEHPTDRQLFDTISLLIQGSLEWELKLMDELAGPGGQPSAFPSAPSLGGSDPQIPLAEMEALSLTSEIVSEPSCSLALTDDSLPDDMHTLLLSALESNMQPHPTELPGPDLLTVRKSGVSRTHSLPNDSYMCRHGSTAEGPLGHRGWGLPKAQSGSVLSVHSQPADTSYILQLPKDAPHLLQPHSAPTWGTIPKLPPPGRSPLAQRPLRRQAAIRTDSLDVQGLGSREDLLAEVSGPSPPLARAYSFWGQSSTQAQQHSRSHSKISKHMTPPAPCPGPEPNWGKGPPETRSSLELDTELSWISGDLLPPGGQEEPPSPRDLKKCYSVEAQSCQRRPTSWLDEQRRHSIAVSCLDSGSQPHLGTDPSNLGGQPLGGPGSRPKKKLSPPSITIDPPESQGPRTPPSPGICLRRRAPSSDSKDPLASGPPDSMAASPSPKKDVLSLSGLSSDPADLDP

COc1cccc2c1C(=O)c1c(O)c3c(c(O)c1C2=O)C[C@@](O)(C(=O)CO)C[C@@H]3O[C@H]1C[C@H](N)[C@H](O)[C@H](C)O1 [Doxorubicin, doxorubicin, reference compound] gave a GI50 [1] of 110 ± 10 nM, a GI50 [2] of 120 ± 20 nM and a GI50 [3] of 60 ± 10 nM. It also gave a GI50 [4] of 210 ± 40 nM and a GI50 [5] of 160 ± 10 nM.
Compound CN(CCCCCN1CCCC1)C1=Nc2ccccc2C(CC(=O)NCc2ccccc2)N1c1ccc(-c2ccccc2)cc1 (stereo not drawn) [KYS05080] has a GI50 [1] of 690 ± 150 nM, a GI50 [2] of 2760 ± 760 nM and a GI50 [3] of 2490 ± 530 nM. It also gave a GI50 [4] of 610 ± 120 nM, a GI50 [5] of 870 ± 180 nM and an IC50 [6] of 260 ± 10 nM.
COC(=O)CC1c2ccccc2N=C(N(C)CCCCCN(C)C)N1c1ccc(-c2ccccc2)cc1 (stereo not drawn) [KYS05089, 2-[N-(5-N′,N′-Dimethylaminopentyl)-N-Methylamino]-3-(4-Biphenylyl)-4-Methoxycarbonylmethyl-3,4-Dihydroquinazoline] showed a GI50 [1] of 1910 ± 110 nM, a GI50 [2] of 1950 ± 40 nM and a GI50 [3] of 1780 ± 170 nM. It also gave a GI50 [4] of 520 ± 240 nM, a GI50 [5] of 1770 ± 160 nM and an IC50 [6] of 230 ± 30 nM.
In the case of CN(C)CCCCCN(C)C1=Nc2ccccc2C(CC(=O)NCc2ccccc2)N1c1ccc(-c2ccccc2)cc1 (stereo not drawn) [KYS05090, 4-(N-Benzylacetamino)-3-(4-Biphenylyl)-2-[N-(5-N′,N′-Dimethylaminopentyl)-N-Methylamino]-3,4-Dihydroquinazoline], the GI50 [1] is reported as 480 ± 130 nM, the GI50 [2] is reported as 660 ± 130 nM and the GI50 [3] is reported as 190 ± 20 nM. For the same compound, the GI50 [4] was 40 ± 10 nM, the “Times stronger activity against human colon cancer cell line compared to KYS05042” value ([4]; human colon cancer cell line, compared to KYS05042) was “about 40 times” and the “Times stronger activity against human colon cancer cell line compared to doxorubicin” value ([4]; human colon cancer cell line, compared to doxorubicin) was “about 5 times”. For the same compound, the “Times stronger growth inhibition compared to KYS05042” value (five cancer cell lines; compared to KYS05042) was “about 10 times”, the “Growth inhibition compared to doxorubicin” value (five cancer cell lines; compared to doxorubicin) was “nearly equipotent growth inhibition” and the GI50 [5] was 170 ± 20 nM. It also gave an IC50 [6] of 41 ± 1 nM.
